Laboratory results published in patent publication US4672068A, “Antihypertensive 1,4-dihydropyridines having a conjugated ester” (Fujirebio Kabushiki Kaisha, priority 1984, dated 1987).

Tested on: Male spontaneously hypertensive rats (SHR), arterial blood pressure
Experiment: Depressor response after intravenous administration (30 μg/kg), Table 1
Type: in vivo, rat
Conditions: for Duration: '90<' means greater than 90
Experimental: Male spontaneously hypertensive rats (SHR) which had mean arterial blood pressures higher than 140 mmHg were used for the experiments. Arterial blood pressure was measured through the catherized artery with a pressure transducer (MPU-0.5, manufactured by Nihon Kohden Kabushiki Kaisha). The catheter was inserted into the abdominal aorta via the median coccygcal artery of SHR under light ether anesthesia. The recordings were made on a rectigraph (manufactured by Sanei Sokki Kabushiki Kaisha). The 1,4-dihydropyridine derivatives prepared in the foregoing examples were administered with catheter which was inserted previously into the caudal vein or duodenum at least two hours after the operation. SHR were restrained with wire mesh cage immediately after the operation. Each derivative to be tested was dissolved in 1.5% PVP/ethanol, and then diluted with 0.9% saline or intravenous administration (30 μg/kg), or suspended in 5% gum arabic solution of intraduodenal administration (1 mg/kg).

Molecule | The time to reach the lowest BP [min] | ΔBP (Maximum depressor response) [mmHg] | Duration [min] | halflife (number in parentheses in Duration column) [min]
C=CCOC(=O)C1=C(C)NC(C)=C(C(=O)OCC=CC=CC)C1c1cccc([N+](=O)[O-])c1 (centres unmarked) [Example 80, Allyl 2,4-hexadienyl 4-(3-nitrophenyl)-2,6-dimethyl-1,4-dihydropyridine-3,5-dicarboxylate] | 1.4 | 40 |  | 
COC(=O)C1=C(C)NC(C)=C(C(=O)OC(C=Cc2ccccc2)C(C)C)C1c1cccc([N+](=O)[O-])c1 (centres unmarked) [Example 8, 1-isopropyl-3-phenyl-2-propenyl methyl 4-(3-nitrophenyl)-2,6-dimethyl-1,4-dihydropyridine-3,5-dicarboxylate] | 25 | 87 | > 180 | 
COCCOC(=O)C1=C(C)NC(C)=C(C(=O)OCC=CC=Cc2ccccc2)C1c1cccc([N+](=O)[O-])c1 (centres unmarked) [Example 62, 2-methoxyethyl 5-phenyl-2,4-pentadienyl 4-(3-nitrophenyl)-2,6-dimethyl-1,4-dihydropyridine-3,5-dicarboxylate] | 2.0 | 60 | > 90 | 
COC(=O)C1=C(C)NC(C)=C(C(=O)OCC=CC=Cc2ccco2)C1c1cccc([N+](=O)[O-])c1 (centres unmarked) [Example 52, Methyl 5-(2-furyl)-2,4-pentadienyl 4-(3-nitrophenyl)-2,6-dimethyl-1,4-dihydropyridine-3,5-dicarboxylate] | 2.0 | 55 | > 90 | 
COC(=O)C1=C(C)NC(C)=C(C(=O)OCC=Cc2ccc3ccccc3c2)C1c1cccc([N+](=O)[O-])c1 (centres unmarked) [Example 29, 3-(2-naphthyl)-2-propenyl methyl 4-(3-nitrophenyl)-2,6-dimethyl-1,4-dihydropyridine-3,5-dicarboxylate] | 5.0 | 25 |  | 
CC=CC=CCOC(=O)C1=C(C)NC(C)=C(C(=O)OC2CCCCC2)C1c1cccc([N+](=O)[O-])c1 (centres unmarked) [Example 70, Cyclohexyl 2,4-hexadienyl 4-(3-nitrophenyl)-2,6-dimethyl-1,4-dihydropyridine-3,5-dicarboxylate] | 7.0 | 65 | > 90 | 
CC=CC=CCOC(=O)C1=C(C)NC(C)=C(C(=O)OC(C)C)C1c1cccc([N+](=O)[O-])c1 (centres unmarked) [Example 68, Isopropyl 2,4-hexadienyl 4-(3-nitrophenyl)-2,6-dimethyl-1,4-dihydropyridine-3,5-dicarboxylate] | 1.4 | 60 | > 90 | 13
Benzyl 2,4-hexadienyl 4-(2-furyl)-2,6-dimethyl-1,4-dihydropyridine-3,5-dicarboxylate [Example 81] | 2.0 | 25 |  | 
CC=CC=CCOC(=O)C1=C(C)NC(C)=C(C(=O)OCC2CC2)C1c1cccc([N+](=O)[O-])c1 (centres unmarked) [Example 85, Cyclopropylmethyl 2,4-hexadienyl 4-(3-nitrophenyl)-2,6-dimethyl-1,4-dihydropyridine-3,5-dicarboxylate] | 2.6 | 35 |  | 
CC=CC=CCOC(=O)C1=C(C)NC(C)=C(C(=O)OCCC)C1c1cccc([N+](=O)[O-])c1 (centres unmarked) [Example 84, n-propyl 2,4-hexadienyl 4-(3-nitrophenyl)-2,6-dimethyl-1,4-dihydropyridine-3,5-dicarboxylate] | 2 | 35 |  | 
CCSCCOC(=O)C1=C(C)NC(C)=C(C(=O)OCC=Cc2ccccc2)C1c1cccc([N+](=O)[O-])c1 (centres unmarked) [Example 41, cinnamyl 2-ethylthioethyl 4-(3-nitrophenyl)-2,6-dimethyl-1,4-dihydropyridine-3,5-dicarboxylate] | 5 | 28 | > 120 | 
